Test results as given in ChEMBL document CHEMBL2203072, “Enhanced anti-influenza agents conjugated with anti-inflammatory activity” (J Med Chem, 2012).
Activity calls are given as the source filed them. The rule behind the calls is not given here.

Legend:
Influenza A virus [1] = assay: Antiviral activity against Influenza A virus (A/VietNam/1194/2004(H5N1)) NIBRG-14 infected in BALB/c mouse assessed as protection from virus-induced death at 12 umol/kg/day, intranasally administered bid on days 1 to 4 and day 0 of infection measured over 14 days; format: functional, organism-based
Influenza A virus [2] = assay: Antiviral activity against Influenza A virus (A/California/07/2009(H1N1)) infected in BALB/c mouse assessed as protection from virus-induced death at 0.12 umol/kg/day, intranasally administered bid on days 1 to 4 and day 0 of infection measured over 14 days; format: functional
[3] = molecular target: Neuraminidase (Influenza A virus (strain A/Wilson-Smith/1933 H1N1) (Influenza A virus(strain A/WS/1933 H1N1)), UniProt P03470); assay: Inhibition of Influenza A virus A/WSN/1933(H1N1)) neuraminidase in the presence of 2'-(4-methyl-umbelliferyl)-alphaD-N-acetylneuraminic acid substrate after 10 mins by fluorometric assay
Chain of Neuraminidase (Influenza A virus (strain A/Wilson-Smith/1933 H1N1) (Influenza A virus(strain A/WS/1933 H1N1)), UniProt P03470) (P03470 whole entry): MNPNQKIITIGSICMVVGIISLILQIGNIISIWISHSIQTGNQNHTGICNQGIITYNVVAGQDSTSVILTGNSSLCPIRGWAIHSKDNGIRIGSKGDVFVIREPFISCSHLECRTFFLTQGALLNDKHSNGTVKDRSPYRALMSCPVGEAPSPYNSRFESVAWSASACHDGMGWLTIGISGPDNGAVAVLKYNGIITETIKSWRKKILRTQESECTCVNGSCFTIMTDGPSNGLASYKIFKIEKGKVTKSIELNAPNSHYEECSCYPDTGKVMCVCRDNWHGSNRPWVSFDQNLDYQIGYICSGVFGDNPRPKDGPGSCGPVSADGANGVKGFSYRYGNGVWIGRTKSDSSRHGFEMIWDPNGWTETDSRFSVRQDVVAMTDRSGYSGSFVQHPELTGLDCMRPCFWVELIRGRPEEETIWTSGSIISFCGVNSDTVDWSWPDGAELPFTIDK

Plasma [4] = assay: Metabolic stability in Sprague-Dawley rat plasma after 24 hrs by LC-QTOF MS analysis; format: ADME, cell-free
Influenza A virus [5] = assay: Antiviral activity against Influenza A virus (A/California/07/2009(H1N1)) infected in BALB/c mouse assessed as protection from virus-induced death at 1.2 umol/kg/day, intranasally administered bid on days 1 to 4 and day 0 of infection measured after 14 days; format: functional
Influenza A virus [6] = assay: Antiviral activity against Influenza A virus (A/WSN/1933(H1N1)) infected in MDCK cells assessed as inhibition of virus induced cytopathic effect; format: functional, organism-based
Influenza A virus [7] = assay: Antiviral activity against Influenza A virus (A/VietNam/1194/2004(H5N1)) NIBRG-14 infected in BALB/c mouse assessed as protection from virus-induced death at 1.2 umol/kg/day, intranasally administered bid on days 1 to 4 and day 0 of infection measured over 14 days; format: functional, organism-based
Plasma [8] = assay: Metabolic stability in Sprague-Dawley rat plasma after 24 hrs by MALDI-TOF analysis; format: ADME, cell-free
MDCK = assay: Cytotoxicity against MDCK cells at 100 uM; format: cell-based, Canis lupus familiaris; details: dog
Influenza A virus [9] = assay: Antiviral activity against Influenza A virus (A/California/07/2009(H1N1)) infected in BALB/c mouse assessed as protection from virus-induced death at 0.012 umol/kg/day, intranasally administered bid on days 1 to 4 and day 0 of infection measured over 14 days; format: functional
Plasma [10] = assay: Metabolic stability in Sprague-Dawley rat plasma assessed as compound degradation after 24 hrs by MALDI-TOF analysis; format: ADME, cell-free
Plasma [11] = assay: Metabolic stability in Sprague-Dawley rat plasma assessed as formation of compound 6 after 24 hrs by MALDI-TOF analysis; format: ADME, cell-free
Mus musculus [12] = assay: Antiinflammatory activity in mouse infected with Influenza A virus (A/VietNam/1194/2004(H5N1)) NIBRG-14 assessed as reduction in IL6 level in serum at 12 umol/kg/day, intranasally administered after 72 hrs by ELISA; format: functional, organism-based
RAW264.7 [13] = assay: Antiinflammatory activity in LPS-activated mouse RAW264.7 cells assessed as inhibition of LPS induced TNFalpha production treated 30 mins prior to LPS challenge measured after 6 hrs by RT-PCR analysis; format: functional, cell-based
Influenza A virus [14] = assay: Ratio of zanamivir EC50 to compound EC50 for Influenza A virus (A/VietNam/1194/2004(H5N1)) NIBRG-14; format: functional
Influenza A virus [15] = assay: Antiviral activity against recombinant Influenza A virus (A/VietNam/1194/2004(H5N1)) NIBRG-14 assessed as inhibition of virus induced cytopathic effect; format: functional, organism-based
RAW264.7 [16] = assay: Antiinflammatory activity in LPS-activated mouse RAW264.7 cells assessed as inhibition of LPS induced IL6 production treated 30 mins prior to LPS challenge measured after 6 hrs by RT-PCR analysis; format: functional, cell-based
Influenza A virus [17] = assay: Antiviral activity against Influenza A virus (A/California/07/2009(H1N1)) infected in BALB/c mouse assessed as protection from virus-induced death at 12 umol/kg/day, intranasally administered bid on days 1 to 4 and day 0 of infection measured over 14 days; format: functional, organism-based
Influenza A virus [18] = assay: Antiviral activity against Influenza A virus (A/California/07/2009(H1N1)) infected in BALB/c mouse assessed as protection from virus-induced death at 0.0012 umol/kg/day, intranasally administered bid on days 1 to 4 and day 0 of infection measured over 14 days; format: functional, organism-based
Mus musculus [19] = assay: Antiinflammatory activity in mouse infected with Influenza A virus (A/VietNam/1194/2004(H5N1)) NIBRG-14 assessed as reduction in IFN-gamma level in serum at 12 umol/kg/day, intranasally administered after 72 hrs by ELISA; format: functional, organism-based
Plasma [20] = assay: Metabolic stability in Sprague-Dawley rat plasma assessed as formation of compound 6 after 24 hrs by LC-QTOF MS analysis; format: ADME, cell-free
Influenza A virus [21] = assay: Antiviral activity against Influenza A virus (A/California/07/2009(H1N1)) infected in BALB/c mouse assessed as protection from virus-induced death at 1.2 umol/kg/day, intranasally administered bid on days 1 to 4 and day 0 of infection measured after 12 days; format: functional, organism-based
Plasma [22] = assay: Metabolic stability in Sprague-Dawley rat plasma assessed as release of zanamivir and caffiec acid after 24 hrs by LC-QTOF MS analysis; format: ADME, cell-free
Plasma [23] = assay: Metabolic stability in Sprague-Dawley rat plasma assessed as release of zanamivir and caffiec acid after 24 hrs by MALDI-TOF analysis; format: ADME, cell-free
Plasma [24] = assay: Metabolic stability in Sprague-Dawley rat plasma assessed as compound degradation after 24 hrs by LC-QTOF MS analysis; format: ADME, cell-free

SMILES	IC50 [3] [nM]	EC50 (Influenza A virus [6]) [nM]	Activity (MDCK)	also measured
CC(=O)N[C@H]1[C@H]([C@H](OC(=O)NCCCNC(=O)/C=C/c2ccc(O)c(O)c2)[C@H](O)CO)OC(C(=O)O)=C[C@@H]1NC(=N)N	41.3	5.1	Non-toxic	Activity (Influenza A virus [1]): Active; Activity (Influenza A virus [2]): 50%; Stability (Plasma [4]): Stable; Activity (Influenza A virus [5]): 100%; Activity (Influenza A virus [7]): Active; Stability (Plasma [8]): Stable; Activity (Influenza A virus [9]): inactive
CC(=O)N[C@H]1[C@H]([C@H](OC(=O)NCCCOC(=O)/C=C/c2ccc(O)c(O)c2)[C@H](O)CO)OC(C(=O)O)=C[C@@H]1NC(=N)N	2.9	1.4	Non-toxic	Stability (Plasma [10]): Unstable; Stability (Plasma [11]): Unstable; Activity (Influenza A virus [1]): Active; Activity (Influenza A virus [2]): Active; Activity (Mus musculus [12]): Active; Activity (RAW264.7 [13]): Dose-dependent effect; Ratio EC50 (Influenza A virus [14]): 13; EC50 (Influenza A virus [15]): 50 nM; Activity (RAW264.7 [16]): Dose-dependent effect; Activity (Influenza A virus [17]): Active; Activity (Influenza A virus [18]): inactive; Activity (Influenza A virus [5]): Active; Activity (Mus musculus [19]): Active; Activity (Influenza A virus [9]): 40%; Stability (Plasma [20]): Unstable
CC(=O)N[C@H]1[C@H]([C@H](O)[C@H](O)CO)OC(C(=O)O)=C[C@@H]1NC(=N)N [ZANAMIVIR]	–	3.5	–	Activity (Influenza A virus [1]): inactive; Activity (Mus musculus [12]): Active; Activity (Influenza A virus [21]): inactive; Activity (Influenza A virus [17]): Active; Activity (Mus musculus [19]): Active
O=C(O)/C=C/c1ccc(O)c(O)c1 [CAFFEIC ACID]	> 100000	> 100000	Non-toxic	Activity (RAW264.7 [13]): Dose-dependent effect; Activity (Influenza A virus [21]): inactive; Activity (RAW264.7 [16]): Dose-dependent effect; Activity (Influenza A virus [17]): Active
CC(=O)N[C@H]1[C@H]([C@H](OC(=O)NCCCOC(=O)c2ccc3ccccc3c2O)[C@H](O)CO)OC(C(=O)O)=C[C@@H]1NC(=N)N	0.7	50	Non-toxic	–
CC(=O)N[C@H]1[C@H]([C@H](OC(=O)NCCCO)[C@H](O)CO)OC(C(=O)O)=C[C@@H]1NC(=N)N	11.7	105	Non-toxic	EC50 (Influenza A virus [15]): 820 nM
CC(=O)N[C@H]1[C@H]([C@H](OC(=O)NCCCNC(=O)c2ccc3ccccc3c2O)[C@H](O)CO)OC(C(=O)O)=C[C@@H]1NC(=N)N	3.1	6.6	Non-toxic	–
O=C(O)c1ccc2ccccc2c1O [CARBOXYNAPHTHOL]	> 100000	> 100000	Non-toxic	–
O=C(O)/C=C/c1ccc2c(c1)OCO2	> 100000	> 100000	Non-toxic	Activity (RAW264.7 [13]): Dose-dependent effect; Activity (RAW264.7 [16]): Dose-dependent effect
CC(=O)N[C@H]1[C@H]([C@H](O)[C@H](O)CO)OC(C(=O)OCCCOC(=O)/C=C/c2ccc(O)c(O)c2)=C[C@@H]1NC(=N)N	2850	25	Non-toxic	Stability (Plasma [22]): Unstable; Stability (Plasma [23]): Unstable
CC(=O)N[C@H]1[C@H]([C@H](OC(=O)NCCCOC(=O)c2ccc(O)c(O)c2)[C@H](O)CO)OC(C(=O)O)=C[C@@H]1NC(=N)N	2.9	53	Non-toxic	–
CC(=O)N[C@H]1[C@H]([C@H](OC(=O)NCCCOC(=O)c2cc(N)ccc2O)[C@H](O)CO)OC(C(=O)O)=C[C@@H]1NC(=N)N	8.6	3.3	Non-toxic	Stability (Plasma [10]): Unstable; Activity (Influenza A virus [1]): inactive; Activity (Mus musculus [12]): Active; Activity (RAW264.7 [13]): Dose-dependent effect; EC50 (Influenza A virus [15]): 430 nM; Activity (RAW264.7 [16]): Dose-dependent effect; Activity (Influenza A virus [17]): Active; Activity (Mus musculus [19]): Active
Nc1ccc(O)c(C(=O)O)c1 [MESALAMINE]	> 100000	> 100000	Non-toxic	Activity (RAW264.7 [13]): Dose-dependent effect; Activity (RAW264.7 [16]): Dose-dependent effect; Activity (Influenza A virus [17]): Active
CC(=O)N[C@H]1[C@H]([C@H](O)[C@H](O)CO)OC(C(=O)O)=C[C@@H]1N=C(N)N [ZANAMIVIR]	–	–	Non-toxic	–
CC(=O)N[C@H]1[C@H]([C@H](O)[C@H](O)CO)OC(C(=O)OCCCOC(=O)c2ccc3ccccc3c2O)=C[C@@H]1NC(=N)N	590	–	Non-toxic	Stability (Plasma [10]): Unstable; Stability (Plasma [24]): Unstable
CC(=O)N[C@H]1[C@H]([C@H](OC(=O)NCCCOC(=O)/C=C/c2ccc3c(c2)OCO3)[C@H](O)CO)OC(C(=O)O)=C[C@@H]1NC(=N)N	5.4	66	Non-toxic	–
CC(=O)N[C@H]1[C@H]([C@H](O)[C@H](O)CO)OC(C(=O)OCCCOC(=O)/C=C/c2ccc3c(c2)OCO3)=C[C@@H]1NC(=N)N	3990	28	Non-toxic	–
CC(=O)N[C@H]1[C@H]([C@H](O)[C@H](O)CO)OC(C(=O)OCCCOC(=O)c2cc(N)ccc2O)=C[C@@H]1NC(=N)N	996	16	Non-toxic	–
